# Experimental data: patent US20120244567A1, “HUMAN EMBRYONIC STEM CELLS FOR HIGH THROUGHOUT DRUG SCREENING” (BUCK INSTITUTE FOR RESEARCH ON AGING, priority 2009, published 2012)
# Structures can show the parent of a compound that is named as a salt.
# System: NSCs
# Conditions: enriched in treated NSCs
# Protocol: RNAs isolated from NSCs and neurons with and without drug treatments were hybridized to Illumina HumanRef-8 BeadChip (Illumina, Inc., San Diego, Calif., performed by Microarray core facility at the Burnham Institute for Medical Research). The Illumina array data were normalized by the quantile method, and then transformed log 2 ratio values for a zero mean for expression values of each gene across all samples. The statistical and bioinformatics analyses were conducted by using R and the bioconductor package (www.bioconductor.org). The gene set enrichment analysis was conducted using the GSEA software (www.broad.mit.edu/gsea).
# The comparative results are then measured by a non-parametric, running sum statistic termed the enrichment score. The enrichment score significance is assessed by 1,000 permutation tests to compute the enrichment p-value.
smiles,measurement,value
CCCCc1oc2ccccc2c1C(=O)c1cc(I)c(OCCN(CC)CC)c(I)c1 [Amiodarone Hydrochloride],Nes: Endopeptidase Activity,1.466
same,Nes: Enzyme Binding,0.9684
same,Nes: Enzyme Inhibitor Activity,1.362
same,Nes: Enzyme Regulator Activity,1.305
same,Nes: Exonuclease Activity,1.423
same,Nes: Gated Channel Activity,0.8726
same,Nes: General Rna Polymerase Ii Transcription Factor Activity,0.772
same,Nes: Growth Factor Binding,1.135
same,Nes: Gtpase Activator Activity,1.186
same,Nes: Gtpase Binding,0.9586
same,Nes: Gtpase Regulator Activity,1.412
same,Nes: Guanyl Nucleotide Exchange Factor Activity,1.287
same,Nes: Hematopoietin Interferon Class D200 Domain Cytokine Receptor Activity,0.7947
same,Nes: Hormone Receptor Binding,0.621
same,Nes: Hydro Lyase Activity,0.5564
same,Nes: Hydrolase Activity Acting On Ester Bonds,1.181
same,Nes: Hydrolase Activity Acting On Glycosyl Bonds,1.049
same,Nes: Hydrolase Activity Hydrolyzing O Glycosyl Compounds,1.219
same,Nes: Inorganic Cation Transmembrane Transporter Activity,0.6802
same,Nes: Ion Channel Activity,1.255
same,Nes: Ion Transmembrane Transporter Activity,1.185
same,Nes: Isomerase Activity,1.154
same,Nes: Kinase Binding,0.6301
same,Nes: Ligase Activity,0.4673
same,Nes: Ligase Activity Forming Carbon Nitrogen Bonds,0.6937
same,Nes: Lyase Activity,1.018
same,Nes: Metal Ion Transmembrane Transporter Activity,1.036
same,Nes: Methyltransferase Activity,0.9044
same,Nes: Molecular Adaptor Activity,1.189
same,Nes: Monovalent Inorganic Cation Transmembrane Transporter Activity,0.7857
same,Nes: Motor Activity,1.105
same,Nes: Mrna Binding,1.006
same,Nes: Nuclease Activity,0.9393
same,Nes: Nucleotide Binding,0.8932
same,Nes: Oxidoreductase Activity,0.9865
same,Nes: Oxidoreductase Activity Acting On Ch Oh Group Of Donors,0.8656
same,Nes: Oxidoreductase Activity Go 0016705,1.545
same,Nes: Peptidase Activity,1.4
same,Nes: Phosphatase Regulator Activity,0.456
same,Nes: Phosphoprotein Phosphatase Activity,1.51
same,Nes: Phosphoric Diester Hydrolase Activity,1.244
same,Nes: Phosphoric Ester Hydrolase Activity,1.31
same,Nes: Phosphoric Monoester Hydrolase Activity,1.31
same,Nes: Protease Inhibitor Activity,1.558
same,Nes: Protein C Terminus Binding,0.6675
same,Nes: Protein Complex Binding,1.312
same,Nes: Protein Domain Specific Binding,0.8643
same,Nes: Protein Kinase Activity,0.8772
same,Nes: Protein Kinase Binding,0.7501
same,Nes: Protein Serine Threonine Kinase Activity,0.8269
same,Nes: Protein Serine Threonine Phosphatase Activity,0.4942
same,Nes: Protein Tyrosine Kinase Activity,0.7818
same,Nes: Protein Tyrosine Phosphatase Activity,1.461
same,Nes: Purine Nucleotide Binding,0.8873
same,Nes: Purine Ribonucleotide Binding,0.9034
same,Nes: Ras Gtpase Activator Activity,0.9812
same,Nes: Receptor Signaling Protein Activity,0.7803
same,Nes: Rho Gtpase Activator Activity,0.9664
same,Nes: Ribonuclease Activity,0.4876
same,Nes: Rna Splicing Factor Activity Transesterification Mechanism,0.9542
same,Nes: S Adenosylmethionine Dependent Methyltransferase Activity,0.9978
same,Nes: Secondary Active Transmembrane Transporter Activity,1.221
same,Nes: Sequence Specific Dna Binding,0.8244
same,Nes: Serine Hydrolase Activity,1.672
same,Nes: Serine Type Peptidase Activity,1.65
same,Nes: Sh3 Sh2 Adaptor Activity,1.235
same,Nes: Single Stranded Dna Binding,0.9015
same,Nes: Small Conjugating Protein Ligase Activity,0.717
same,Nes: Small Gtpase Binding,0.9179
same,Nes: Small Gtpase Regulator Activity,1.109
same,Nes: Small Protein Conjugating Enzyme Activity,0.7314
same,Nes: Specific Rna Polymerase Ii Transcription Factor Activity,1.539
same,Nes: Structural Constituent Of Cytoskeleton,1.041
same,Nes: Structural Constituent Of Muscle,1.106
same,Nes: Structural Molecule Activity,0.7432
same,Nes: Structure Specific Dna Binding,0.7614
same,Nes: Substrate Specific Channel Activity,1.3
same,Nes: Substrate Specific Transmembrane Transporter Activity,1.04
same,Nes: Substrate Specific Transporter Activity,0.9263
same,Nes: Transcription Activator Activity,0.7812
same,Nes: Transcription Coactivator Activity,0.5439
same,Nes: Transcription Cofactor Activity,1.217
same,Nes: Transcription Corepressor Activity,1.692
same,Nes: Transcription Factor Activity,1.217
same,Nes: Transcription Factor Binding,1.248
same,Nes: Transcription Repressor Activity,1.653
same,Nes: Transferase Activity Transferring Alkyl Or Aryl Other Than Methyl Groups,0.6606
same,Nes: Transferase Activity Transferring Glycosyl Groups,0.6701
same,Nes: Transferase Activity Transferring Groups Other Than Amino Acyl Groups,0.6753
same,Nes: Transferase Activity Transferring One Carbon Groups,0.7951
same,Nes: Transferase Activity Transferring Sulfur Containing Groups,0.8435
same,Nes: Transition Metal Ion Binding,1.037
same,Nes: Translation Factor Activity Nucleic Acid Binding,0.81
same,Nes: Translation Initiation Factor Activity,0.4449
same,Nes: Translation Regulator Activity,0.9216
same,Nes: Transmembrane Receptor Protein Kinase Activity,0.7564
same,Nes: Transmembrane Receptor Protein Tyrosine Kinase Activity,0.9533
same,Nes: Transmembrane Transporter Activity,1.011
same,Nes: Ubiquitin Protein Ligase Activity,0.7536
same,Nes: Zinc Ion Binding,0.9797
